The results in this text go back to the supplement of paper PMC11451515.

Molecules are shown by their SMILES.

What all share (test): AUC of viability dose-response curve (% viability x log10 dose units); higher = less sensitive
What all share (conditions): 48 h

One assay deals with NOMO1. The procedure, abridged: (§1)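 Area under the curve was integrated by trapezoidal rule from a log-logistic fit of normalised viability, with curves exceeding full viability scaled and quality-control failures removed. The fit had four parameters over log10 doses. Viability came from CellTiter-Glo One luminescence, normalised per plate to DMSO and cell-free wells, after leukemia cells adapted to each medium (500 or 1000 cells/well, 1536-well plates) were exposed to library compounds in DMSO for 48 h at 37°C. The 11 threefold doses ran from 47 μM to 0.79 nM.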

The next assay concerns P12-Ichikawa. The procedure, abridged:
as §1

Another assay has as its system SEM cells. The procedure, abridged: as §1
Setting [1] is: RPMI 5 mM glucose + 10% dialyzed FBS.

In the case of `COC1=CC=C(C=C1O)C/2=C/C(=O)C3=C(O2)C=C(O[C@@H]4O[C@H](CO[C@@H]5O[C@@H](C)[C@H](O)[C@@H](O)[C@H]5O)[C@@H](O)[C@H](O)[C@H]4O)C=C3O`, the “AUC of viability dose-response curve” value in the assay with NOMO1 (HPLM + 10% dialyzed FBS) worked out at 456; in the assay on NOMO1 (RPMI 5 mM glucose + 10% FBS) it was 460; in the assay with NOMO1 (setting [1]), 477; in the assay with P12-Ichikawa (HPLM + 10% dialyzed FBS), 461; with P12-Ichikawa (RPMI 5 mM glucose + 10% FBS) it was 463; in the assay with P12-Ichikawa (setting [1]) it was 470. The “AUC of viability dose-response curve” value in the assay with SEM cells (HPLM + 10% dialyzed FBS) was determined as 461; in the assay on SEM cells (RPMI 5 mM glucose + 10% FBS), 453; with SEM cells (setting [1]) it was 466.
With `CC(C)[C@H](N)C(=O)OCCOC[N]1C=NC2=C1\N=C(N)/NC2=O`, the “AUC of viability dose-response curve” value was found to be 457 with NOMO1 (HPLM + 10% dialyzed FBS); 459 in the assay with NOMO1 (RPMI 5 mM glucose + 10% FBS); 474 in the assay on NOMO1 (setting [1]); 475 in the assay on P12-Ichikawa (HPLM + 10% dialyzed FBS); 450 in the assay on P12-Ichikawa (RPMI 5 mM glucose + 10% FBS); 458 in the assay on P12-Ichikawa (setting [1]). The “AUC of viability dose-response curve” value with SEM cells (HPLM + 10% dialyzed FBS) came out at 467; with SEM cells (RPMI 5 mM glucose + 10% FBS), 457; in the assay on SEM cells (setting [1]) it was 465.
Turning to `COc1cc(N2CCC(N(C)C)CC2)ccc1Nc1ncc(Cl)c(Nc2ccccc2P(C)(C)=O)n1`, the “AUC of viability dose-response curve” value was found to be 333 in the assay on NOMO1 (HPLM + 10% dialyzed FBS); 374 in the assay on NOMO1 (RPMI 5 mM glucose + 10% FBS); 375 in the assay on NOMO1 (setting [1]); 338 with P12-Ichikawa (HPLM + 10% dialyzed FBS); 361 with P12-Ichikawa (RPMI 5 mM glucose + 10% FBS); 380 in the assay on P12-Ichikawa (setting [1]). Besides, the results for the “AUC of viability dose-response curve” value in the assay on SEM cells (HPLM + 10% dialyzed FBS), in the assay with SEM cells (RPMI 5 mM glucose + 10% FBS) and with SEM cells (setting [1]) were 288, 294 and 287, respectively.
Consider `CN(C)C(=O)C(CCN1CCC(O)(c2ccc(Cl)cc2)CC1)(c1ccccc1)c1ccccc1`, for which the “AUC of viability dose-response curve” value amounted to 448 in the assay with NOMO1 (HPLM + 10% dialyzed FBS); 445 in the assay on NOMO1 (RPMI 5 mM glucose + 10% FBS); 436 in the assay with NOMO1 (setting [1]); 460 in the assay with P12-Ichikawa (HPLM + 10% dialyzed FBS); 444 in the assay on P12-Ichikawa (RPMI 5 mM glucose + 10% FBS); 444 with P12-Ichikawa (setting [1]). Besides, the entries for the “AUC of viability dose-response curve” value in the assay with SEM cells (HPLM + 10% dialyzed FBS), in the assay on SEM cells (RPMI 5 mM glucose + 10% FBS) and in the assay on SEM cells (setting [1]) were 445, 436 and 449, respectively.
For `Cc1noc(-c2ccc(CSCCC(=O)O)cc2)c1NC(=O)OC(C)c1ccccc1Cl` (stereo not given), the “AUC of viability dose-response curve” value in the assay with NOMO1 (HPLM + 10% dialyzed FBS) worked out at 468; in the assay on NOMO1 (RPMI 5 mM glucose + 10% FBS) it was 457; with NOMO1 (setting [1]) it was 432; in the assay on P12-Ichikawa (HPLM + 10% dialyzed FBS), 464; in the assay with P12-Ichikawa (RPMI 5 mM glucose + 10% FBS), 428; in the assay with P12-Ichikawa (setting [1]) it was 437. Besides, the “AUC of viability dose-response curve” value turned out to be 453 in the assay with SEM cells (HPLM + 10% dialyzed FBS), 433 in the assay on SEM cells (RPMI 5 mM glucose + 10% FBS) and 471 in the assay with SEM cells (setting [1]).
With `NC/1=N/C(=O)N(/C=N1)[C@@H]2O[C@H](CO)[C@@H](O)[C@H]2O`, the “AUC of viability dose-response curve” value turned out to be 430 with NOMO1 (HPLM + 10% dialyzed FBS); 421 with NOMO1 (RPMI 5 mM glucose + 10% FBS); 396 in the assay on NOMO1 (setting [1]); 422 with P12-Ichikawa (HPLM + 10% dialyzed FBS); 437 with P12-Ichikawa (RPMI 5 mM glucose + 10% FBS); 428 in the assay with P12-Ichikawa (setting [1]). For the same molecule, the “AUC of viability dose-response curve” value is 406 in the assay on SEM cells (HPLM + 10% dialyzed FBS), 399 in the assay on SEM cells (RPMI 5 mM glucose + 10% FBS) and 322 in the assay on SEM cells (setting [1]).
As to `CC(O)C1C2C(C)\C(=C(/N2C1=O)C(O)=O)SC3CNC(C3)C(=O)N(C)C` (stereo not given), the “AUC of viability dose-response curve” value in the assay on NOMO1 (HPLM + 10% dialyzed FBS) amounted to 416; with NOMO1 (RPMI 5 mM glucose + 10% FBS) it was 404; with NOMO1 (setting [1]), 396; with P12-Ichikawa (HPLM + 10% dialyzed FBS) it was 432; with P12-Ichikawa (RPMI 5 mM glucose + 10% FBS), 392; with P12-Ichikawa (setting [1]), 416. Moreover, the “AUC of viability dose-response curve” value in the assay on SEM cells (HPLM + 10% dialyzed FBS) amounted to 395; in the assay on SEM cells (RPMI 5 mM glucose + 10% FBS) it was 407; in the assay with SEM cells (setting [1]), 438.
As to `CC(C)C[C@H](NC(=O)[C@@H](O)[C@H](N)Cc1ccccc1)C(=O)O`, the “AUC of viability dose-response curve” value is 451 in the assay with NOMO1 (HPLM + 10% dialyzed FBS); 447 in the assay with NOMO1 (RPMI 5 mM glucose + 10% FBS); 439 in the assay with NOMO1 (setting [1]); 463 in the assay on P12-Ichikawa (HPLM + 10% dialyzed FBS); 447 in the assay on P12-Ichikawa (RPMI 5 mM glucose + 10% FBS); 452 in the assay on P12-Ichikawa (setting [1]). In addition, the “AUC of viability dose-response curve” value in the assay on SEM cells (HPLM + 10% dialyzed FBS) amounted to 453; in the assay with SEM cells (RPMI 5 mM glucose + 10% FBS), 455; in the assay with SEM cells (setting [1]), 454.
Regarding `CNC(=O)[C@H](CC/1=C/N=C\2/C=C\C\C=C12)NC(=O)[C@H](CC(C)C)CC(=O)NO`, the “AUC of viability dose-response curve” value with NOMO1 (HPLM + 10% dialyzed FBS) turned out to be 400; in the assay on NOMO1 (RPMI 5 mM glucose + 10% FBS) it was 413; with NOMO1 (setting [1]) it was 418; with P12-Ichikawa (HPLM + 10% dialyzed FBS), 425; with P12-Ichikawa (RPMI 5 mM glucose + 10% FBS), 423; with P12-Ichikawa (setting [1]), 423. In addition, the results for the “AUC of viability dose-response curve” value in the assay on SEM cells (HPLM + 10% dialyzed FBS), with SEM cells (RPMI 5 mM glucose + 10% FBS) and in the assay with SEM cells (setting [1]) were 471, 462 and 465, respectively.
Consider `N#C[C@H](O[C@@H]1O[C@H](CO[C@@H]2O[C@H](CO)[C@@H](O)[C@H](O)[C@H]2O)[C@@H](O)[C@H](O)[C@H]1O)c1ccccc1`, for which the “AUC of viability dose-response curve” value is 454 with NOMO1 (HPLM + 10% dialyzed FBS); 435 with NOMO1 (RPMI 5 mM glucose + 10% FBS); 448 with NOMO1 (setting [1]); 454 in the assay on P12-Ichikawa (HPLM + 10% dialyzed FBS); 446 with P12-Ichikawa (RPMI 5 mM glucose + 10% FBS); 427 in the assay with P12-Ichikawa (setting [1]). Moreover, the “AUC of viability dose-response curve” value was found to be 462 with SEM cells (HPLM + 10% dialyzed FBS), 452 in the assay with SEM cells (RPMI 5 mM glucose + 10% FBS) and 452 with SEM cells (setting [1]).
Regarding `CCOc1cc(CC(=O)N[C@@H](CC(C)C)c2ccccc2N2CCCCC2)ccc1C(=O)O`, the “AUC of viability dose-response curve” value in the assay with NOMO1 (HPLM + 10% dialyzed FBS) was found to be 327; in the assay on NOMO1 (RPMI 5 mM glucose + 10% FBS), 310; in the assay with NOMO1 (setting [1]) it was 337; with P12-Ichikawa (HPLM + 10% dialyzed FBS), 365; with P12-Ichikawa (RPMI 5 mM glucose + 10% FBS), 373; in the assay on P12-Ichikawa (setting [1]) it was 387. The “AUC of viability dose-response curve” value in the assay on SEM cells (HPLM + 10% dialyzed FBS) was 459; in the assay with SEM cells (RPMI 5 mM glucose + 10% FBS) it was 432; with SEM cells (setting [1]), 436.
`CCN1CCN(C(=O)Cc2ccc(Nc3ncc(F)c(Nc4ccc(C(=O)Nc5ccccc5Cl)cc4)n3)cc2)CC1`: the “AUC of viability dose-response curve” value with NOMO1 (HPLM + 10% dialyzed FBS) was 420; with NOMO1 (RPMI 5 mM glucose + 10% FBS), 430; in the assay with NOMO1 (setting [1]) it was 420; in the assay on P12-Ichikawa (HPLM + 10% dialyzed FBS), 405; in the assay on P12-Ichikawa (RPMI 5 mM glucose + 10% FBS), 418; in the assay with P12-Ichikawa (setting [1]), 413. Further, the “AUC of viability dose-response curve” value with SEM cells (HPLM + 10% dialyzed FBS) is 402; with SEM cells (RPMI 5 mM glucose + 10% FBS) it was 383; in the assay with SEM cells (setting [1]), 386.
Regarding `COc1cc(C(=O)NS(=O)(=O)c2ccccc2C)ccc1Cc1cn(C)c2ccc(NC(=O)OC3CCCC3)cc12`, the “AUC of viability dose-response curve” value in the assay with NOMO1 (HPLM + 10% dialyzed FBS) turned out to be 371; in the assay on NOMO1 (RPMI 5 mM glucose + 10% FBS), 378; with NOMO1 (setting [1]), 384; in the assay on P12-Ichikawa (HPLM + 10% dialyzed FBS) it was 411; in the assay with P12-Ichikawa (RPMI 5 mM glucose + 10% FBS), 380; with P12-Ichikawa (setting [1]), 383. In addition, the “AUC of viability dose-response curve” value was 323 in the assay on SEM cells (HPLM + 10% dialyzed FBS), 338 with SEM cells (RPMI 5 mM glucose + 10% FBS) and 319 with SEM cells (setting [1]).
With `COc1cc(O)c2c(c1)C(=O)c1cc(C)cc(O)c1C2=O`, the “AUC of viability dose-response curve” value with NOMO1 (HPLM + 10% dialyzed FBS) turned out to be 416; in the assay on NOMO1 (RPMI 5 mM glucose + 10% FBS), 451; in the assay on NOMO1 (setting [1]), 446; with P12-Ichikawa (HPLM + 10% dialyzed FBS), 451; with P12-Ichikawa (RPMI 5 mM glucose + 10% FBS) it was 454; in the assay with P12-Ichikawa (setting [1]), 446. Moreover, the “AUC of viability dose-response curve” value was determined as 427 in the assay on SEM cells (HPLM + 10% dialyzed FBS), 399 in the assay on SEM cells (RPMI 5 mM glucose + 10% FBS) and 414 with SEM cells (setting [1]).
Consider `Cc1ccc2c(c1)c1c(n2CCc2ccc(C)nc2)CCN(C)C1`, for which the “AUC of viability dose-response curve” value in the assay on NOMO1 (HPLM + 10% dialyzed FBS) came out at 447; in the assay on NOMO1 (RPMI 5 mM glucose + 10% FBS), 458; in the assay with NOMO1 (setting [1]), 472; with P12-Ichikawa (HPLM + 10% dialyzed FBS), 459; with P12-Ichikawa (RPMI 5 mM glucose + 10% FBS) it was 465; in the assay with P12-Ichikawa (setting [1]) it was 469. Further, the “AUC of viability dose-response curve” value with SEM cells (HPLM + 10% dialyzed FBS) was 472; in the assay on SEM cells (RPMI 5 mM glucose + 10% FBS) it was 471; in the assay with SEM cells (setting [1]) it was 474.
